According to PubChem BioAssay (NCI):
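Cells were grown in 96-well plates and exposed to each compound for 48 hours at five concentrations; endpoints were interpolated linearly between bracketing concentrations, or set to the highest concentration if not reached. The concentration for full growth arrest is given as TGI.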

How the values were obtained:
Assay in all cases: DTP human tumour cell line panel, 48 h
[1] = test system: ACHN renal
[2] = test system: CAKI-1 renal
[3] = test system: CCRF-CEM leukemia
[4] = test system: COLO 205 colon
[5] = test system: DLD-1 colon
[6] = test system: DMS 273 small cell lung
[7] = test system: EKVX NSCLC
[8] = test system: HCC-2998 colon
[9] = test system: HCT-116 colon
[10] = test system: HCT-15 colon
[11] = test system: HL-60(TB) leukemia
[12] = test system: HOP-62 NSCLC
[13] = test system: HOP-92 NSCLC
[14] = test system: HT29 colon
[15] = test system: IGROV1 ovarian
[16] = test system: K-562 leukemia
[17] = test system: KM12 colon
[18] = test system: KM20L2 colon
[19] = test system: LOX IMVI melanoma
[20] = test system: LXFL 529 NSCLC
[21] = test system: M14 melanoma
[22] = test system: M19-MEL melanoma
[23] = test system: MALME-3M melanoma
[24] = test system: MOLT-4 leukemia
[25] = test system: NCI-H226 lung
[26] = test system: NCI-H23 lung
[27] = test system: NCI-H460 lung
[28] = test system: NCI-H522 lung
[29] = test system: OVCAR-3 ovarian
[30] = test system: OVCAR-4 ovarian
[31] = test system: OVCAR-5 ovarian
[32] = test system: OVCAR-8 ovarian
[33] = test system: RPMI-8226 leukemia
[34] = test system: RXF 393 renal
[35] = test system: SF-268 CNS
[36] = test system: SF-295 CNS
[37] = test system: SK-MEL-2 melanoma
[38] = test system: SK-MEL-28 melanoma
[39] = test system: SK-MEL-5 melanoma
[40] = test system: SK-OV-3 ovarian
[41] = test system: SN12C renal
[42] = test system: SNB-75 CNS
[43] = test system: SR leukemia
[44] = test system: SW-620 colon
[45] = test system: TK-10 renal
[46] = test system: U251 CNS
[47] = test system: UACC-257 melanoma
[48] = test system: UACC-62 melanoma
[49] = test system: UO-31 renal
[50] = test system: 786-0 renal
[51] = test system: A549 NSCLC
[52] = test system: SNB-19 CNS

Measured: TGI

CN(C)C(=O)OC1C(=O)N(C)c2ccc(Cl)cc2C2(c3ccccc3)N1C2(Cl)Cl (centres undefined)
not listed: [50] | [51] | [52]
> 100 µM: all other assays above

Cc1ccc(C(N)=O)cc1N=NN(C)C
not listed: [3] | [9] | [11] | [16] | [23] | [24] | [25] | [31] | [33] | [34] | [42] | [43]
> 100 µM: all other assays above
